Each structure is given as a SMILES string. Like-named read-outs stand apart in the source and are kept apart here.

From US8591943B2, “Pyrazolo[1,5-a]pyrimidine derivatives as mTOR inhibitors” (Merck Sharp & Dohme Corp., priority 2009, dated 2013) come the findings set out here.

One experiment concerns the target T1, Cyclin E/CDK2 (Homo sapiens, UniProt P24941).
T1 construct: made in house; host or cells: SF9 cells, baculovirus co-infection
Put plainly: In Vitro Cyclin E/CDK2 Kinase Assay. Format: biochemical. From the text:
Cyclin E was cloned into pVL1393 (Pharmingen, La Jolla, Calif.) by PCR, with the addition of 5 histidine residues at the amino-terminal end to allow purification on nickel resin. The expressed protein was approximately 45 kDa. CDK2 was cloned into pVL1393 by PCR, with the addition of a haemaglutinin epitope tag at the carboxy-terminal end (YDVPDYAS). The expressed protein was approximately 34 kDa in size.
Recombinant baculoviruses expressing cyclin E and CDK2 were co-infected into SF9 cells at an equal multiplicity of infection (MOI=5), for 48 hrs. Cells were harvested by centrifugation at 1000 RPM for 10 minutes, then pellets lysed on ice for 30 minutes in five times the pellet volume of lysis buffer containing 50 mM Tris pH 8.0, 150 mM NaCl, 1% NP40, 1 mM DTT and protease inhibitors (Roche Diagnostics GmbH, Mannheim, Germany). Lysates were spun down at 15000 RPM for 10 minutes and the supernatant retained. 5 mL of nickel beads (for one liter of SF9 cells) were washed three times in lysis buffer (Qiagen GmbH, Germany). Imidazole was added to the baculovirus supernatant to a final concentration of 20 mM, then incubated with the nickel beads for 45 minutes at 4° C. Proteins were eluted with lysis buffer containing 250 mM imidazole. Eluate was dialyzed about 15 hours in 2 liters of kinase buffer containing 50 mM Tris pH 8.0, 1 mM DTT, 10 mM MgCl2, 100 μM sodium orthovanadate and 20% glycerol. Enzyme was stored in aliquots at −70° C.
Cyclin E/CDK2 kinase assays can be performed as described below in low protein binding 96-well plates (Corning Inc, Corning, N.Y.).
The substrate used in these reactions is a biotinylated peptide derived from Histone H1 (from Amersham, UK). The substrate is thawed on ice and diluted to 2 μM in kinase buffer. Test compounds are diluted in 10% DMSO to desirable concentrations. For each kinase reaction, 20 μL of the 50 μg/mL enzyme solution (1 μg of enzyme) and 20 μl of the 2 μM substrate solution are mixed, then combined with 10 μL of diluted compound in each well for testing. The kinase reaction is initiated by addition of 50 μL of 2 μM ATP and 0.1 μCi of ^33P-ATP (from Amersham, UK). The reaction is allowed to run for 1 hour at room temperature, then is stopped by adding 200 μL of stop buffer containing 0.1% Triton X-100, 1 mM ATP, 5 mM EDTA, and 5 mg/mL streptavidine coated SPA beads (from Amersham, UK) for 15 minutes. The SPA beads are then captured onto a 96-well GFIB filter plate (Packard/Perkin Elmer Life Sciences) using a Filtermate universal harvester (Packard/Perkin Elmer Life Sciences.). Non-specific signals are eliminated by washing the beads twice with 2M NaCl then twice with 2 M NaCl with 1% phosphoric acid. The radioactive signal can then be measured using, for example, a TopCount 96 well liquid scintillation counter (from Packard/Perkin Elmer Life Sciences).

Another experiment deals with mTOR enzyme (Homo sapiens, UniProt P42345). Put plainly: mTOR Kinase Assay. In kind it is biochemical. The procedure:
The mTOR assay buffer contains 10 mM hepes (pH 7.4), 50 mM NaCl, 100 μg/ml BSA, 50 mM B-glycerophosphate, 10 mM MnCl2 and 0.5 mM DTT. 20 ng of mTOR enzyme is preincubated with the compound for 10 minutes. 5 μM ATP and 0.1 μM GSTS6K is added. The reaction is incubated for one hour at 30° C. Anti phospho p70S6K (about 1.7 ng/well) and anti GSTXL665 (1:1 Ratio with the substrate GSTS6K) are added after incubating. The plates are read at least 2 hours after adding the anti phospho p70S6K and the anti GSTXL665.

For a further experiment, the target named is T2, recombinant His-CHK1 (Homo sapiens, UniProt O14757).
T2 sequence (O14757 1-265 limits assumed): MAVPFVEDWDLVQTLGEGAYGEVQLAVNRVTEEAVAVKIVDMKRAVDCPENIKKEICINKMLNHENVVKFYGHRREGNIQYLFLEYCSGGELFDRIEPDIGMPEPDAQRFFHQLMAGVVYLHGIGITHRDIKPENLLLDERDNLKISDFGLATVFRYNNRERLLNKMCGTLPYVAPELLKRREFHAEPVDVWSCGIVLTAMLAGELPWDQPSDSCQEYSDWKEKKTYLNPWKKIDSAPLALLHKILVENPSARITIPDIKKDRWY
Put plainly: CHK1 In Vitro Kinase Assay.

What is called IC50 is the point on the concentration scale where inhibition reaches its midpoint. Consider `Nc1c(Br)c(N2CCc3[nH]cnc3C2)nc2c(-c3cnc4ccccc4c3)cnn12` [Compound 10.19], for which the IC50 against Cyclin E/CDK2 (rated A-F) was over 5 µM; on mTOR enzyme (rated A-F) it was under 0.1 µM; at recombinant His-CHK1 it was over 5 µM.

On to `Nc1c(Br)c(N2CCN3C(=O)CCC3C2)nc2c(-c3cnc4ccccc4c3)cnn12` (stereo not drawn) [Compound 10.26], for which the IC50 was over 5 µM on Cyclin E/CDK2 (rated A-F), under 0.1 µM against mTOR enzyme (rated A-F) and over 5 µM at recombinant His-CHK1.

Turning to `Cn1cc(-c2cnn3c(N)c(Br)c(C4CCC(C(=O)O)C4)nc23)cn1` (stereo not drawn) [Compound 4.5], the IC50 against Cyclin E/CDK2 (rated A-F) was over 5 µM; against mTOR enzyme (rated A-F), 0.101 to 0.2 µM; on recombinant His-CHK1, over 5 µM.

For the compound `Nc1c(Br)c(N2CCCS(=O)(=O)CC2)nc2c(-c3cnc4ccccc4c3)cnn12` [Compound 10.64], the IC50 on Cyclin E/CDK2 (rated A-F) was over 5 µM; against mTOR enzyme (rated A-F), under 0.1 µM; on recombinant His-CHK1, over 5 µM.

Take `COC(=O)[C@@H]1CC[C@H](c2cc(N)n3ncc(-c4cnn(C)c4)c3n2)CN1` (stereo in doubt) [Compound 2.5]: the half-inhibitory concentration (IC50) against Cyclin E/CDK2 (rated A-F) was over 5 µM; on mTOR enzyme (rated A-F) it was 0.101 to 0.2 µM; at recombinant His-CHK1, 0.501 to 1 µM.

In the case of `COC(=O)C1CCC(c2nc3c(-c4cnn(C)c4)cnn3c(N)c2Br)CN1` (stereo not drawn) [Compound 2.4], the IC50 on Cyclin E/CDK2 (rated A-F) was over 5 µM; on mTOR enzyme (rated A-F) it was under 0.1 µM; at recombinant His-CHK1, 0.101 to 0.2 µM.

On to `COC(=O)C1CCC(c2cc(N)n3ncc(-c4cnn(C)c4)c3n2)CN1` (stereo not drawn) [Compound 2.8], for which the IC50 against Cyclin E/CDK2 (rated A-F) was over 5 µM; on mTOR enzyme (rated A-F), 0.501 to 1 µM; at recombinant His-CHK1, 1 to 5 µM.

Consider `COC(=O)C1CCC(c2nc3c(-c4cnc5ccccc5c4)cnn3c(N)c2Br)CN1` (stereo not drawn) [Compound 2.3, Methyl 5-(7-amino-6-bromo-3-(quinolin-3-yl)pyrazolo[1,5-a]pyrimidin-5-yl)piperidine-2-carboxylate], for which the 50% inhibitory concentration (IC50) on Cyclin E/CDK2 (rated A-F) was over 5 µM; on mTOR enzyme (rated A-F), under 0.1 µM; at recombinant His-CHK1, 1 to 5 µM.

Regarding `N#CCC1CCC(c2nc3c(-c4cnc5ccccc5c4)cnn3c(N)c2Br)CC1` (stereo not drawn) [Compound 5.2], the IC50 at Cyclin E/CDK2 (rated A-F) is over 5 µM; against mTOR enzyme (rated A-F), under 0.1 µM; on recombinant His-CHK1 it was over 5 µM.

As to `Nc1c(Br)c([C@H]2CC[C@H](C(=O)O)CC2)nc2c(-c3ccc(-c4ccncc4)nc3)cnn12` [Compound 4.12], the values for the IC50 at Cyclin E/CDK2 (rated A-F), on mTOR enzyme (rated A-F) and at recombinant His-CHK1 were over 5 µM, under 0.1 µM and over 5 µM, respectively.

For the compound `Nc1c(Br)c(CNC2CCOCC2)nc2c(-c3cnc4ccccc4c3)cnn12` [Compound 13.16], the concentration for half-maximal inhibition (IC50) at Cyclin E/CDK2 (rated A-F) was over 5 µM; at mTOR enzyme (rated A-F), under 0.1 µM; at recombinant His-CHK1, over 5 µM.

Take `Nc1c(Br)c(C2CCC(CC(=O)O)CC2)nc2c(-c3cnc4ccccc4c3)cnn12` (single isomer, unassigned) [Compound 5.4, 2-(4-(7-amino-6-bromo-3-(quinolin-3-yl)pyrazolo[1,5-a]pyrimidin-5-yl)cyclohexyl)acetic acid]: the concentration for half-maximal inhibition (IC50) against Cyclin E/CDK2 (rated A-F) was over 5 µM; against mTOR enzyme (rated A-F) it was under 0.1 µM; on recombinant His-CHK1, over 5 µM.

On to `Nc1c(Br)c(CN2CCOCC2)nc2c(-c3cnc4ccccc4c3)cnn12` [Compound 13.2, 6-bromo-5-(morpholinomethyl)-3-(quinolin-3-yl)pyrazolo[1,5-a]pyrimidin-7-amine], for which the results for the 50% inhibitory concentration (IC50) on Cyclin E/CDK2 (rated A-F), against mTOR enzyme (rated A-F) and at recombinant His-CHK1 were over 5 µM, under 0.1 µM and over 5 µM, respectively.

`Nc1cc(C2CCC(C(=O)O)NC2)nc2c(-c3cn[nH]c3)cnn12` (stereo not drawn) [Compound 1.5]: the results for the IC50 at Cyclin E/CDK2 (rated A-F), at mTOR enzyme (rated A-F) and at recombinant His-CHK1 were over 5 µM, under 0.1 µM and over 5 µM, respectively.

In the case of `Nc1cc(CN2CCN3C(=O)NC(=O)C3C2)nc2c(-c3cnc4ccccc4c3)cnn12` (stereo not drawn) [Compound 13.3], the concentration for half-maximal inhibition (IC50) is over 5 µM on Cyclin E/CDK2 (rated A-F), 0.201 to 0.5 µM at mTOR enzyme (rated A-F) and over 5 µM at recombinant His-CHK1.

On to `Nc1c(Br)c(N2CCC(CC(=O)O)CC2)nc2c(-c3cnc4ccccc4c3)cnn12` [Compound 10.47], for which the concentration for half-maximal inhibition (IC50) came out at 10 µM on Cyclin E/CDK2, 0.0113 µM on mTOR enzyme and 22 µM at recombinant His-CHK1.

Consider `Nc1c(Cl)c(N2CCN3C(=O)NC(=O)C3C2)nc2c(-c3cnc4ccccc4c3)cnn12` (stereo not drawn) [Compound 10.61], for which the results for the IC50 against Cyclin E/CDK2 (rated A-F), against mTOR enzyme (rated A-F) and at recombinant His-CHK1 were over 5 µM, under 0.1 µM and over 5 µM, respectively.

Turning to `CS(=O)(=O)NC(=O)C[C@H]1CC[C@@H](c2nc3c(-c4cnc5ccccc5c4)cnn3c(N)c2Br)CC1` [Compound 7.2, 2-(4-(7-amino-6-bromo-3-(quinolin-3-yl)pyrazolo[1,5-a]pyrimidin-5-yl)cyclohexyl)-N-(methylsulfonyl)acetamide], the half-maximal inhibitory concentration (IC50) at Cyclin E/CDK2 (rated A-F) is over 5 µM; on mTOR enzyme (rated A-F), under 0.1 µM; on recombinant His-CHK1 it was over 5 µM.

`CS(=O)(=O)N1CCC(c2nc3c(-c4cnc5ccccc5c4)cnn3c(N)c2Br)C1` (stereo not drawn) [Compound 8.1]: the half-maximal inhibitory concentration (IC50) on Cyclin E/CDK2 (rated A-F) is over 5 µM; at mTOR enzyme (rated A-F), under 0.1 µM; at recombinant His-CHK1, over 5 µM.

`CS(=O)(=O)NC(=O)C[C@H]1CC[C@H](c2nc3c(-c4cnc5ccccc5c4)cnn3c(N)c2Br)CC1` [Compound 7.5]: the IC50 on Cyclin E/CDK2 (rated A-F) was over 5 µM; at mTOR enzyme (rated A-F) it was under 0.1 µM; at recombinant His-CHK1 it was over 5 µM.

`Nc1c(Br)c([C@H]2CC[C@H](C(=O)O)CC2)nc2c(-c3ccc(-c4cccnc4)nc3)cnn12` [Compound 4.11]: the figures for the half-maximal inhibitory concentration (IC50) against Cyclin E/CDK2 (rated A-F), against mTOR enzyme (rated A-F) and on recombinant His-CHK1 were over 5 µM, under 0.1 µM and over 5 µM, respectively.

Turning to `Nc1c(Br)c(C2CCS(=O)(=O)CC2)nc2c(-c3cnc4ccccc4c3)cnn12` [Compound 8.15], the IC50 was over 5 µM at Cyclin E/CDK2 (rated A-F), under 0.1 µM at mTOR enzyme (rated A-F) and over 5 µM on recombinant His-CHK1.

Regarding `Nc1c(Br)c(C2CCC(C(=O)O)NC2)nc2c(-c3cnc4ccccc4c3)cnn12` (stereo not drawn) [Compound 2.2, 5-(7-amino-6-bromo-3-(quinolin-3-yl)pyrazolo[1,5-a]pyrimidin-5-yl)piperidine-2-carboxylic acid], the results for the concentration for half-maximal inhibition (IC50) at Cyclin E/CDK2 (rated A-F), at mTOR enzyme (rated A-F) and on recombinant His-CHK1 were over 5 µM, under 0.1 µM and over 5 µM, respectively.

As for `Nc1c(Br)c(N2CCS(=O)(=O)CC2)nc2c(-c3cnc4ccccc4c3)cnn12` [Compound 10.31], the IC50 is over 5 µM on Cyclin E/CDK2 (rated A-F), under 0.1 µM against mTOR enzyme (rated A-F) and over 5 µM at recombinant His-CHK1.
